Data from PubChem BioAssay (NCI).
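Results reflect a 48-hour exposure of cells in 96-well plates to compound at five concentrations. TGI is the concentration that stops growth completely.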

Legend:
Assay in all cases: NCI-60 cell line screen, 48 h
786-0 renal = test system: 786-0 renal
A498 renal = test system: A498 renal
A549 NSCLC = test system: A549 NSCLC
ACHN renal = test system: ACHN renal
BT-549 breast = test system: BT-549 breast
CAKI-1 renal = test system: CAKI-1 renal
CCRF-CEM leukemia = test system: CCRF-CEM leukemia
COLO 205 colon = test system: COLO 205 colon
DU-145 prostate = test system: DU-145 prostate
EKVX NSCLC = test system: EKVX NSCLC
HCC-2998 colon = test system: HCC-2998 colon
HCT-116 colon = test system: HCT-116 colon
HCT-15 colon = test system: HCT-15 colon
HL-60(TB) leukemia = test system: HL-60(TB) leukemia
HOP-62 NSCLC = test system: HOP-62 NSCLC
HOP-92 NSCLC = test system: HOP-92 NSCLC
HS 578T breast = test system: HS 578T breast
HT29 colon = test system: HT29 colon
IGROV1 ovarian = test system: IGROV1 ovarian
K-562 leukemia = test system: K-562 leukemia
KM12 colon = test system: KM12 colon
LOX IMVI melanoma = test system: LOX IMVI melanoma
M14 melanoma = test system: M14 melanoma
MALME-3M melanoma = test system: MALME-3M melanoma
MCF7 breast = test system: MCF7 breast
MDA-MB-231 breast = test system: MDA-MB-231 breast
MDA-MB-435 = test system: MDA-MB-435
MDA-N = test system: MDA-N
MOLT-4 leukemia = test system: MOLT-4 leukemia
NCI-H226 lung = test system: NCI-H226 lung
NCI-H23 lung = test system: NCI-H23 lung
NCI-H460 lung = test system: NCI-H460 lung
NCI-H522 lung = test system: NCI-H522 lung
NCI/ADR-RES ovarian = test system: NCI/ADR-RES ovarian
OVCAR-3 ovarian = test system: OVCAR-3 ovarian
OVCAR-4 ovarian = test system: OVCAR-4 ovarian
OVCAR-5 ovarian = test system: OVCAR-5 ovarian
OVCAR-8 ovarian = test system: OVCAR-8 ovarian
PC-3 prostate = test system: PC-3 prostate
RPMI-8226 leukemia = test system: RPMI-8226 leukemia
RXF 393 renal = test system: RXF 393 renal
SF-268 CNS = test system: SF-268 CNS
SF-295 CNS = test system: SF-295 CNS
SF-539 CNS = test system: SF-539 CNS
SK-MEL-2 melanoma = test system: SK-MEL-2 melanoma
SK-MEL-28 melanoma = test system: SK-MEL-28 melanoma
SK-MEL-5 melanoma = test system: SK-MEL-5 melanoma
SK-OV-3 ovarian = test system: SK-OV-3 ovarian
SN12C renal = test system: SN12C renal
SNB-19 CNS = test system: SNB-19 CNS
SNB-75 CNS = test system: SNB-75 CNS
SR leukemia = test system: SR leukemia
SW-620 colon = test system: SW-620 colon
T-47D breast = test system: T-47D breast
TK-10 renal = test system: TK-10 renal
U251 CNS = test system: U251 CNS
UACC-257 melanoma = test system: UACC-257 melanoma
UACC-62 melanoma = test system: UACC-62 melanoma
UO-31 renal = test system: UO-31 renal

CC(C)=CC(=O)c1[nH]c2ccccc2c1CC(=O)NCCc1cn(C(c2ccccc2)(c2ccccc2)c2ccccc2)cn1
TGI (786-0 renal): > 100 µM
TGI (A498 renal): > 50.5 µM
TGI (A549 NSCLC): > 27.4 µM
TGI (ACHN renal): > 100 µM
TGI (BT-549 breast): 11 µM
TGI (CAKI-1 renal): > 100 µM
TGI (CCRF-CEM leukemia): > 24.3 µM
TGI (COLO 205 colon): 3.4 µM
TGI (DU-145 prostate): > 100 µM
TGI (EKVX NSCLC): > 100 µM
TGI (HCC-2998 colon): 3.78 µM
TGI (HCT-116 colon): 10.6 µM
TGI (HCT-15 colon): > 40.4 µM
TGI (HL-60(TB) leukemia): 3.44 µM
TGI (HOP-62 NSCLC): > 100 µM
TGI (HOP-92 NSCLC): > 26.1 µM
TGI (HS 578T breast): > 56.5 µM
TGI (HT29 colon): > 42.7 µM
TGI (IGROV1 ovarian): > 45 µM
TGI (K-562 leukemia): > 59.6 µM
TGI (KM12 colon): 14.2 µM
TGI (LOX IMVI melanoma): 4.46 µM
TGI (M14 melanoma): 4.8 µM
TGI (MALME-3M melanoma): 12.5 µM
TGI (MCF7 breast): > 100 µM
TGI (MDA-MB-231 breast): 6.36 µM
TGI (MDA-MB-435): 4.42 µM
TGI (MDA-N): 9.75 µM
TGI (MOLT-4 leukemia): 5.49 µM
TGI (NCI-H226 lung): 6.28 µM
TGI (NCI-H23 lung): > 36.2 µM
TGI (NCI-H460 lung): 10.6 µM
TGI (NCI-H522 lung): 19.8 µM
TGI (NCI/ADR-RES ovarian): 10.8 µM
TGI (OVCAR-3 ovarian): > 100 µM
TGI (OVCAR-4 ovarian): > 58.7 µM
TGI (OVCAR-5 ovarian): 87.7 µM
TGI (OVCAR-8 ovarian): > 100 µM
TGI (PC-3 prostate): 6.75 µM
TGI (RPMI-8226 leukemia): 5.23 µM
TGI (RXF 393 renal): 13.5 µM
TGI (SF-268 CNS): > 53.3 µM
TGI (SF-295 CNS): > 100 µM
TGI (SF-539 CNS): 5.21 µM
TGI (SK-MEL-2 melanoma): 3.54 µM
TGI (SK-MEL-28 melanoma): 12.4 µM
TGI (SK-MEL-5 melanoma): 3.84 µM
TGI (SK-OV-3 ovarian): > 100 µM
TGI (SN12C renal): > 23.9 µM
TGI (SNB-19 CNS): > 30.4 µM
TGI (SNB-75 CNS): > 100 µM
TGI (SR leukemia): 4.88 µM
TGI (SW-620 colon): > 100 µM
TGI (T-47D breast): > 100 µM
TGI (TK-10 renal): > 100 µM
TGI (U251 CNS): 9.17 µM
TGI (UACC-257 melanoma): > 67.4 µM
TGI (UACC-62 melanoma): 4.72 µM
TGI (UO-31 renal): > 29.4 µM
